Test results from ChEMBL document CHEMBL1201862, “PubChem BioAssay data set” (2004).
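The compound was tested at five concentrations on cells cultured in 96-well plates, with a 48-hour exposure period. Here, GI50 denotes the concentration required for 50% inhibition of growth.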 The source made the active and inactive calls. Rule as the data show it: active = GI50 up to about 1.1 µM and inactive = higher.

Columns and labels:
Assay in all cases: inhibition of tumour cell growth, NCI panel, 48 h
MDA-MB-435 = tested on: MDA-MB-435
HCC 2998 = tested on: HCC 2998
SK-MEL-2 = tested on: SK-MEL-2
TK-10 = tested on: TK-10
UO-31 = tested on: UO-31
786-0 = tested on: 786-0
HT-29 = tested on: HT-29
U-251 = tested on: U-251
T47D = tested on: T47D
Malme-3M = tested on: Malme-3M
MDA-MB-231 = tested on: MDA-MB-231
SF-268 = tested on: SF-268
M14 = tested on: M14
NCI-H460 = tested on: NCI-H460
OVCAR-8 = tested on: OVCAR-8
OVCAR-4 = tested on: OVCAR-4
SN12C = tested on: SN12C
IGROV-1 = tested on: IGROV-1
NCI/ADR-RES = tested on: NCI/ADR-RES
NCI-H522 = tested on: NCI-H522

Measured: GI50

CC[C@]12C=CCN3CC[C@@]4(c5cc(N=O)c(OC)cc5N(C)[C@H]4[C@@](O)(C(=O)NC(Cc4c[nH]c5ccccc45)C(=O)OC)[C@@H]1O)[C@@H]32 (stereo not given in full)
inactive: MDA-MB-435 17.1 µM | HCC 2998 15.6 µM | SK-MEL-2 15.3 µM | TK-10 17.9 µM | UO-31 23.1 µM | 786-0 30 µM | HT-29 14.1 µM | U-251 7.33 µM | T47D 6.93 µM | Malme-3M 18.6 µM | MDA-MB-231 18.3 µM | SF-268 24.2 µM | M14 19 µM | NCI-H460 19.1 µM | OVCAR-8 17.5 µM | OVCAR-4 15.6 µM | SN12C 26.4 µM | IGROV-1 17.7 µM | NCI/ADR-RES > 100 µM | NCI-H522 2.64 µM

O=C1NC(=O)C(Cc2ccccc2)(c2cccnc2)N1 (stereo not given)
inactive: MDA-MB-435 > 100 µM | HCC 2998 > 100 µM | SK-MEL-2 > 100 µM | TK-10 > 100 µM | UO-31 > 100 µM | 786-0 > 100 µM | HT-29 > 100 µM | U-251 > 100 µM | T47D > 100 µM | Malme-3M > 100 µM | MDA-MB-231 > 100 µM | SF-268 > 100 µM | M14 > 100 µM | NCI-H460 > 100 µM | OVCAR-8 > 100 µM | OVCAR-4 > 100 µM | SN12C > 100 µM | IGROV-1 > 100 µM | NCI/ADR-RES > 100 µM | NCI-H522 > 100 µM

COC(=O)[C@]1(NC(=O)c2ccccc2)C[C@H]1C=O
inactive: MDA-MB-435 > 100 µM | HCC 2998 57.7 µM | SK-MEL-2 > 100 µM | TK-10 > 100 µM | UO-31 > 100 µM | 786-0 > 100 µM | HT-29 > 100 µM | U-251 > 100 µM | T47D > 100 µM | Malme-3M > 100 µM | MDA-MB-231 > 100 µM | SF-268 > 84.5 µM | M14 > 100 µM | NCI-H460 15 µM | OVCAR-8 > 100 µM | OVCAR-4 > 100 µM | SN12C > 100 µM | IGROV-1 > 100 µM | NCI/ADR-RES > 58.6 µM | NCI-H522 > 61.1 µM

CC(C)(C)N1C(=O)c2ccccc2C1(O)C(F)(F)F (stereo not given)
inactive: MDA-MB-435 > 100 µM | HCC 2998 > 100 µM | SK-MEL-2 > 100 µM | TK-10 > 100 µM | UO-31 > 100 µM | 786-0 > 100 µM | HT-29 > 100 µM | U-251 > 100 µM | T47D 53.6 µM | Malme-3M 38 µM | MDA-MB-231 > 100 µM | SF-268 > 100 µM | M14 > 100 µM | NCI-H460 > 100 µM | OVCAR-8 > 100 µM | OVCAR-4 > 100 µM | SN12C > 100 µM | IGROV-1 74 µM | NCI/ADR-RES > 100 µM | NCI-H522 64.4 µM

CCN(Cc1cc(Cl)cc(C)c1O)Cc1c(O)ccc2ccccc12
inactive: MDA-MB-435 15.8 µM | HCC 2998 16.8 µM | SK-MEL-2 16.4 µM | TK-10 17.1 µM | UO-31 16.2 µM | 786-0 16.8 µM | HT-29 12.9 µM | U-251 17.1 µM | T47D 16.6 µM | Malme-3M 14.5 µM | MDA-MB-231 18.4 µM | SF-268 18.2 µM | M14 18.4 µM | NCI-H460 18.2 µM | OVCAR-8 17.7 µM | OVCAR-4 17.1 µM | SN12C 18.2 µM | IGROV-1 15.3 µM | NCI/ADR-RES 14.8 µM | NCI-H522 11.2 µM

N#Cc1ccccc1-c1nc2c3c(c(N)ccc3n1)C(=O)c1ccccc1-2
inactive: MDA-MB-435 76.2 µM | HCC 2998 > 100 µM | SK-MEL-2 47 µM | TK-10 21.4 µM | UO-31 8.85 µM | 786-0 33 µM | HT-29 43.4 µM | U-251 34.6 µM | T47D 6.7 µM | Malme-3M > 100 µM | MDA-MB-231 10.3 µM | SF-268 51.5 µM | M14 23.1 µM | NCI-H460 > 100 µM | OVCAR-8 33.5 µM | OVCAR-4 71 µM | SN12C 60 µM | IGROV-1 8.38 µM | NCI/ADR-RES > 100 µM | NCI-H522 32 µM
